# Test results as given in US10683272B2 (THE JOHNS HOPKINS UNIVERSITY, priority 2014, dated 2020).
# Read-outs that look alike come from different tables or passages of the source. Where a SMILES comes first, the peptide text is derived from it. [ ]: non-standard residue; d: D form. The star is where a group is joined. ξ: configuration not given here. X1 = O=C(O)CC[C@H](NC(=O)N[C@@H](CCCCNC(=O)CCCCCCC(=O)*)C(=O)O)C(=O)O; DOTA = O=C(O)CN1CCN(CC(=O)O)CCN(CC(=O)*)CCN(CC(=O)O)CC1; ξF = NC(Cc1ccccc1)C(=O)O
# Columns and labels:
# PSMA = PSMA (Homo sapiens, UniProt Q04609); assay: fluorescence-based PSMA inhibition assay (Example 1); assay type: biochemical
# Sequence of PSMA (Q04609 whole entry): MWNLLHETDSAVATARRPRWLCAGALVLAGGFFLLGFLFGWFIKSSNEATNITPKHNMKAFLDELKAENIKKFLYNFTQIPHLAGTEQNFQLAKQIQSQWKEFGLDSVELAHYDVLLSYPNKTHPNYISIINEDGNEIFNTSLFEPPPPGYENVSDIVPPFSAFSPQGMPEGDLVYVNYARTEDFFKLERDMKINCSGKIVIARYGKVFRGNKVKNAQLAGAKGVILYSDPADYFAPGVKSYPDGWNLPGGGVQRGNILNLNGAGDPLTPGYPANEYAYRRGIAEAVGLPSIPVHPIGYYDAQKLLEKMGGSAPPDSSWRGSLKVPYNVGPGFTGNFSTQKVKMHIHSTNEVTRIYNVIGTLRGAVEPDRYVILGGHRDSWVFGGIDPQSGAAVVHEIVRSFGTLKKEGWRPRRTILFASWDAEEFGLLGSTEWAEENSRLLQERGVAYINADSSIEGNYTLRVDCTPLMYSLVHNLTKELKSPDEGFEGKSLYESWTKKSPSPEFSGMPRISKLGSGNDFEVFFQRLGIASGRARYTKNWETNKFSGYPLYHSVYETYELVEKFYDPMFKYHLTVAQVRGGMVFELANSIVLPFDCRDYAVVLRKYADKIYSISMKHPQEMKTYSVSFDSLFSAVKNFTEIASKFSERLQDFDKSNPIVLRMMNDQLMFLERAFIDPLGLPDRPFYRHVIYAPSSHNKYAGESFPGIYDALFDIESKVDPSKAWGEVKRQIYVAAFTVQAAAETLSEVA
# [1] = tested on: PSMA+ PC3 PIP and PSMA− PC3 flu cells; assay: T1-weighted MR imaging of cell pellets; assay type: cell-based, human; conditions: PSMA+ PC3 PIP vs PSMA− PC3 flu cell pellets
# Method: FIG. 4A through FIG. 4C show T1 contrast enhancement generated by Gd3 in an isogenic human PC3 prostate cancer cell pair, PSMA+ PIP and PSMA− flu cells; (A) Color coded T1 maps of PIP and flu cells. Relaxation rates were determined at 25° C. at 9.4 T; (B) Quantification of T1 changes (ΔT1) in PIP and flu cells (n=4, P<0.05) following treatment with Gd3; (C) cellular uptake of Gd3 in PIP and flu cells.
# (§1) When imaged at 9.4 T and 25° C., solution phantoms indicated r1 relaxivities in PBS that vary between 3.0 and 6.2 mM^−1 s^−1 per Gd(III) and between 3.0 and 12.5 mM-1 s-1 per contrast agent (Table 1). As expected, Gd1 has the lowest relaxivity followed by Gd2 and Gd3 at 25° C. To determine selectivity and specificity of the agents, human prostate cancer cells genetically modified to express high amounts of PSMA (PC3 PIP) and the corresponding wild-type, PSMA-non-expressing cells (PC3 flu) were selected as negative control (Banerjee, Angew., 2001). […] Enhancement and T1 measurements by means of MRI of the cell pellets in the presence and absence of 50 μM Gd3 indicated higher enhancement and difference in T1 relaxation rates, ΔR1 between Gd3 treated PIP cells and the control PIP cells as compared to the Gd3-treated flu cells and the control flu control cells, after removal of the Gd3 from the cell system by washing with standard medium (FIG. 4B and FIG. 4C).
# PSMA+ PC3 PIP cells [2] = assay: ICP-MS analysis of Gd in cell pellets; assay type: cell-based, human
# From the text: Thus, the difference between ΔR1 of the PIP cells and that of the flu cells reflects the change due to the specific Gd3 binding to PSMA in the PIP cells.
# [3] = r1 relaxivity of solution phantoms at 9.4 T and 25° C.; assay type: physicochemical; conditions: for r1 relaxivity, ionic (per Gd(III)) / r1 relaxivity, molecular (per contrast agent): 9.4 T, 25° C., PBS; for r1 relaxivity: column T1 of Table 1
# Method: as §1
# PSMA+ PC3 PIP cells [4] = assay: cell internalization assay (ICP-MS); assay type: cell-based, human
# Method: FIG. 6A and FIG. 6B show the % ID of Gd3 cell surface bound (A) and internalized (B) at 1, 4 and 24 h;
# Moreover, slightly higher non-specific uptake was associated with Gd2 in PSMA− PC3 flu cells, which might be related to the lower K1 value of this agent compared to Gd1. As a further check on cellular uptake and internalization, a dual modality Gd monomeric contrast agent labeled with Rhodamine-Red™-X was prepared to confirm the PSMA-mediated internalization of this class of contrast agents (FIG. 5D).
# A time-dependent internalization study was performed for Gd3 (FIG. 6A and FIG. 6B) after 1, 4 and 24 h of incubation. […] A similar amount of Gd (˜33-37% ID) was associated with the cell membrane at those same time-points.
# [5] = tested on: PSMA+ PC3 PIP and PSMA− PC3 flu tumor xenografts; assay type: in vivo
# PSMA+ PC3 PIP cells [6] = assay: cell viability, MTS assay; assay type: cell-based, human; conditions: 24 h
# PSMA− PC3 flu cells = assay: cell viability, MTS assay; assay type: cell-based, human; conditions: 24 h, up to Gd(III) concentration of 1 mM
# Method: Prior to evaluating Gd3 for live mouse imaging, its biocompatibility was examined using a cell proliferation assay. Various concentrations of Gd3 were incubated with PSMA+PC3 PIP and PSMA− PC3 flu cells, for 24 h. […] However, Gd(III) concentrations of >1 mM affected PSMA+PC3 PIP cell viability (FIG. 8). The observed level of PSMA+PC3 PIP cell death may be attributable to high cell internalization of Gd3, and the long incubation time employed (24 h).
# [7] = tested on: PSMA+ PC-3 PIP and PSMA− PC-3 flu tumors; assay: small animal PET-CT imaging; assay type: in vivo, NOD/SCID mice; conditions: 2 h post-injection
# Method: Mice (n=3 for ^86Y-4 or ^86Y-6 and n=2 for ^86Y-5) were injected via the tail vein with 3.33-6.21 MBq (90-168 μCi) of radiotracer formulated in 100 μL of saline at pH ˜7. […] At different time points, anesthetized individual mice were placed in the prone position on the scanner gantry and secured with medical tape while the anesthesia flow rate was increased to 0.8 L/min. Images were reconstructed using the FORE/2D-OSEM method (two iterations, 16 subsets) and included correction for radioactive decay, scanner dead time, and scattered radiation. Partial volume correction (PVC) was not performed. After each PET scan, a CT scan was acquired for anatomic co-registration. To facilitate PET and CT image co-registration, a special animal bed was employed which fits both the PET and CT scanners. The animals were under anesthesia and immobilized when moving between scanners as well as during both scans. The reconstructed PET and CT images were then manually co-registered through rigid transformation, by aligning natural landmarks (such as the animal limbs and the bed contour) using the AMIDE software (from sourceforge.net/amide).
# Dynamic, whole-body PET and CT images were acquired on an eXplore VISTA small-animal PET (GE Healthcare, Little Chalfont, Buckinghamshire, UK) and an X-SPECT small SPECT/CT system (Gamma Medica Ideas, Northridge, Calif.), respectively.
# [8] = PSMA+ PC3 PIP cells, 4 h incubation
# [9] = 0.05 mmol/Kg i.v., first 20 min after injection
molecule,measurement,setting,value
"O=C([O-])CN1CCN(CC(=O)[O-])CCN(CC(=O)NCCCCC(NC(=O)CN2CCN(CC(=O)[O-])CCN(CC(=O)[O-])CCN(CC(=O)[O-])CC2)C(=O)NC(CCCCNC(=O)CCCCCCC(=O)NCCCC[C@H](NC(=O)N[C@@H](CCC(=O)O)C(=O)O)C(=O)O)C(=O)O)CCN(CC(=O)[O-])CC1.[Gd+3].[Gd+3] (stereo partly drawn) [Gd2, (30S,34S)-2,9,17,24,32-pentaoxo-1-(4,7,10-tris(carboxymethyl)-1,4,7,10-tetraazacyclododecan-1-yl)-8-(2-(4,7,10-tris(carboxymethyl)-1,4,7,10-tetraazacyclododecan-1-yl)acetamido)-3,10,16,25,31,33-hexaazahexatriacontane-11,30,34,36-tetracarboxylic acid, digadolinium(III) salt]",Ki,PSMA,18.2 nM
same,T1-weighted MR contrast of cell pellets,[1],did not demonstrate T1-weighted MR contrast or changes in R1
same,estimated intracellular Gd(III) concentration,PSMA+ PC3 PIP cells [2],~12.5 µM
same,"r1 relaxivity, ionic (per Gd(III))",[3],6.2 mM⁻¹ s⁻¹
same,"r1 relaxivity, molecular (per contrast agent)",[3],12.5 mM⁻¹ s⁻¹
same,r1 relaxivity,[3],5.44 mM⁻¹ s⁻¹
same,percent of incubated dose associated with the cell surface,PSMA+ PC3 PIP cells [4]; [8],3.51±1.32 % ID
same,percent of incubated dose internalized,PSMA+ PC3 PIP cells [4]; [8],21.63±3.51 % ID
"(3S,7S)-5,13,20,28-tetraoxo-32-(2,4,6-tris(1-(2-hydroxy-3-(4,7,10-tris(carboxymethyl)-1,4,7,10-tetraazacyclododecan-1-yl)propyl)-1H-1,2,3-triazol-4-yl)phenoxy)-4,6,12,21,27-pentaazadotriacontane-1,3,7,22-tetracarboxylic acid, trigadolinium(III) salt [Gd3]",contrast enhancement at PIP tumor,"[5]; 0.05 mmol/Kg i.v., 40 min post-injection",36%
same,"lowering of T1 value, PIP tumor",[5]; [9],0.57 s
same,"lowering of T1 value, PSMA flu tumor",[5]; [9],0.63 s
same,"lowering of T1 value, muscle",[5]; [9],0.261 s
same,contrast enhancement at PIP tumor,"[5]; 0.05 mmol/Kg i.v., until 1.5 h post injection",30%
same,"highest contrast enhancement, PSMA− PC3 flu tumors","[5]; 0.06 mmol/kg i.v., 20 min post-injection",~24%
same,"enhancement in R1, PSMA+ PC3 PIP tumor","[5]; 0.06 mmol/kg i.v., 190 min after injection",24%
same,"ΔR1, PSMA− PC3 flu tumors","[5]; 0.06 mmol/kg i.v., after 40 min",< 20%
same,"average enhancement in R1 values, PSMA+ PC3 PIP tumor","[5]; 0.06 mmol/kg i.v., first 40 to 60 min",36%
same,minimum T1 value of PSMA+ PC3 PIP tumor,"[5]; 0.06 mmol/kg i.v., first 40 to 60 min, n=4","1,819±76 ms"
same,"enhancement in R1, PSMA+ PC3 PIP tumor","[5]; 0.06 mmol/kg i.v., until 90 min",29%
same,Ki,PSMA,7.19 nM
same,Gd(III) concentrations that affected cell viability,PSMA+ PC3 PIP cells [6],> 1 mM
same,T1-weighted MR contrast of cell pellets,[1],significant MR contrast enhancement in PSMA+PC3 PIP cells
same,estimated intracellular Gd(III) concentration,PSMA+ PC3 PIP cells [2],~22.82 µM
same,"r1 relaxivity, ionic (per Gd(III))",[3],3.3 mM⁻¹ s⁻¹
same,"r1 relaxivity, molecular (per contrast agent)",[3],9.81 mM⁻¹ s⁻¹
same,r1 relaxivity,[3],12.47 mM⁻¹ s⁻¹
same,cell viability,PSMA− PC3 flu cells,~90%
same,amount of Gd associated with the cell membrane,"PSMA+ PC3 PIP cells [4]; PSMA+ PC3 PIP cells, 1, 4 and 24 h",33-37 % ID
same,percent of incubated dose internalized,"PSMA+ PC3 PIP cells [4]; PSMA+ PC3 PIP cells, 1 h incubation",28.30±0.47 % ID
same,percent of incubated dose internalized,PSMA+ PC3 PIP cells [4]; [8],39.92±3.59 % ID
same,percent of incubated dose internalized,"PSMA+ PC3 PIP cells [4]; PSMA+ PC3 PIP cells, 24 h incubation",~89.69±3.90 % ID
O=C([O-])CN1CCN(CC(=O)[O-])CCN(CC(=O)NC(Cc2ccccc2)C(=O)NC(Cc2ccccc2)C(=O)NC(Cc2ccccc2)C(=O)N[C@@H](CCCCNC(=O)CCCCCCC(=O)NCCCC[C@H](NC(=O)N[C@@H](CCC(=O)O)C(=O)O)C(=O)O)C(=O)O)CCN(CC(=O)[O-])CC1.[86Y+3] (some centres unmarked) [^86Y-5] ({DOTA}-[ξF][ξF][ξF]K(X1)-OH),non-specific accumulation on PET/CT,[7],non-specific accumulation in the gastrointestinal tract
